Experimental data from patent US20250051851A1, “NOVEL BIOMARKER FOR DETECTION OF CANCER METASTASIS” (INDUSTRY-ACADEMIC COOPERATION FOUNDATION, YONSEI UNIVERSITY, priority 2021, published 2025).

System: IKZF1 and IKZF3
Assay: In vivo experiment using IKZF inhibitor: counting circulating tumor cells in melanoma mouse model
Settings: melanoma mouse model (B16F10 cells injected into paw pad); injection of the drug; FIG. 12

With `Nc1cccc2c1C(=O)N(C1CCC(=O)NC1=O)C2=O` (stereo not shown) [pomalidomide] the “number of circulating tumor cells” value was “decreased”.
